According to article PMC4284807, “Activation of RidA chaperone function by N-chlorination” (Nature Communications, 2014):

Tests used:
[1] = target: T1, RidA (untreated) (Escherichia coli, UniProt P0AF93); assay: fluorescence titration of dye with protein; assay type: binding; details: protein varied 1-200 μM, 0.2 μM dye, 40 mM HEPES-KOH pH 7.4, emission 613 nm, hydrophobicity probe
T1 construct: full-length recombinant RidA, 13,480 Da (fits loss of initiator Met), trimer; untreated
T1 sequence (P0AF93 2-128): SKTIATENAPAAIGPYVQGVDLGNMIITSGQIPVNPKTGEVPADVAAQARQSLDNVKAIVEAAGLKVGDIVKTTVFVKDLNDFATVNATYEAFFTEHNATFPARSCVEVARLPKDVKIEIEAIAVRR

[2] = target: T2, IlvA (Escherichia coli, UniProt P04968); assay: alpha-ketobutyrate formation at […] nm; assay type: biochemical; details: 10 mM threonine, 0.9 μM IlvA, MES/HEPES/TAPS pH 7.5, 20 °C; accelerated by untreated RidA
T2 sequence (P04968 1-514): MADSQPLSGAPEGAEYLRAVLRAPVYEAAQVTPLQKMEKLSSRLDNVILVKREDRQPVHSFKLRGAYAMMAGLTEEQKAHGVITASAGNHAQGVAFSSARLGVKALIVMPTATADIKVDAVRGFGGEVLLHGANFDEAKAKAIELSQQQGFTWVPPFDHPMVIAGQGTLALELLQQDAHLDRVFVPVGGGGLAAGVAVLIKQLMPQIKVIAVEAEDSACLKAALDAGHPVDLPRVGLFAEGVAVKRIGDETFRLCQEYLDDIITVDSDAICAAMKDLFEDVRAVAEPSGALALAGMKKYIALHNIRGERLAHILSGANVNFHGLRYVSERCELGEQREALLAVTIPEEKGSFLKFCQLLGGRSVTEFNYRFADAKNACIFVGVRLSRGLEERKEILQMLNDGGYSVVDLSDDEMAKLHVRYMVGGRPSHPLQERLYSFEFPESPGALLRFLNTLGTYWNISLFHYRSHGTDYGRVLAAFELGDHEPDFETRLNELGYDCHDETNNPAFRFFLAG

[3] = target: the molecule itself; assay: SEC; analytical gel filtration, Superdex 75 10/300 GL, flow rate 0.5 ml min^-1; untreated RidA or RidA treated with a 10-fold excess of HOCl for 5 min at 37 °C (HOCl removed)

## CCN(CC)c1ccc2nc3c4ccccc4c(=O)cc-3oc2c1 [Nile red]
[1]
  Kd: 121 µM

## C[C@@H](O)[C@H](N)C(=O)O [threonine]
[2]
  alpha-ketobutyrate formation at 230 nm: α-ketobutyrate generation from threonine catalysed by threonine deaminase IlvA

B1: E. coli RidA, untreated (natural protein, UniProt P0AF93 1-128, looked up)
chain: MSKTIATENAPAAIGPYVQGVDLGNMIITSGQIPVNPKTGEVPADVAAQARQSLDNVKAIVEAAGLKVGDIVKTTVFVKDLNDFATVNATYEAFFTEHNATFPARSCVEVARLPKDVKIEIEAIAVRR
notes: RidA of Escherichia coli, member of the YjgF/YER057c/UK114 family; mass of the unmodified full-length protein printed as 13,480 Da; The printed mass of 13,480 Da may mean that the first methionine is missing (surmise); also called RidA-UT; untreated RidA
[3]
  stoichiometry N: 3

B2: HOCl-treated RidA (RidA_(HOCl)) (natural protein, E. coli, UniProt P0AF93 1-128, looked up)
chain: MSKTIATENAPAAIGPYVQGVDLGNMIITSGQIPVNPKTGEVPADVAAQARQSLDNVKAIVEAAGLKVGDIVKTTVFVKDLNDFATVNATYEAFFTEHNATFPARSCVEVARLPKDVKIEIEAIAVRR
modifications: N-chlorinated: up to seven chlorine atoms added (positions not mapped); up to five oxygen atoms added to methionine and cysteine residues
notes: RidA of Escherichia coli, treated with HOCl; The chlorinated residues are not identified; the authors suspect lysine, arginine and the N-terminus; also called N-chlorinated RidA; source: HOCl removed with Micro Bio-Spin columns
[3]
  binding result: binds
